Six compounds from article PMC2390898 (Antiviral Research, 2006) can be followed below.

Read-outs that look alike come from different tables or passages of the source.

For one data set, the system named is LANA. The data set is classed as cell-based, Kaposi's sarcoma-associated herpesvirus (KSHV).
The test system of data set [1] is RTA. In kind it is cell-based, Kaposi's sarcoma-associated herpesvirus (KSHV).
Data set [2] deals with RTA. The data set is classed as cell-based, Kaposi's sarcoma-associated herpesvirus (KSHV). This is another data set of the same source.
For data set [3], the system named is BCBL-1 cells. The settings on record: for relative percentage of fluorescence intensity (cell viability): 1 h.
In data set [4] the test system is RTA. The data set is classed as cell-based, Kaposi's sarcoma-associated herpesvirus (KSHV). This is another data set of the same source.
Data set [5] relates to RTA. In kind it is cell-based, Kaposi's sarcoma-associated herpesvirus (KSHV). This is another data set of the same source.
Data set [6] has as its system ORF50 leader sequence (RP1 P-PMO target region)-luciferase RNA. The data set is classed as biochemical, Kaposi's sarcoma-associated herpesvirus (KSHV).
In another data set the test system is LP1/luciferase RNA. The data set is described as follows: Cell-free reporter assay with LP1/luciferase RNA. In kind it is biochemical, Kaposi's sarcoma-associated herpesvirus (KSHV). The settings on record: data not shown. (Reporter assays use an easily measured gene product as a stand-in for the process of interest.)
Data set [7] has as its system BCBL-1 cells. As to the kind of experiment: PMO/P-PMO uptake and persistence in BCBL-1 cells. The data set is classed as cell-based.
The subject of another data set is KSHV. The data set is classed as cell-based, Kaposi's sarcoma-associated herpesvirus (KSHV).

For `CC(=O)N1C[C@@H](COP(=O)(N(C)C)N2C[C@@H](COP(=O)(N(C)C)N3C[C@@H](COP(=O)(N(C)C)N4C[C@@H](COP(=O)(N(C)C)N5C[C@@H](COP(=O)(N(C)C)N6C[C@@H](COP(=O)(N(C)C)N7C[C@@H](COP(=O)(N(C)C)N8C[C@@H](COP(=O)(N(C)C)N9C[C@@H](COP(=O)(N(C)C)N%10C[C@@H](COP(=O)(N(C)C)N%11C[C@@H](COP(=O)(N(C)C)N%12C[C@@H](COP(=O)(N(C)C)N%13C[C@@H](COP(=O)(N(C)C)N%14C[C@@H](COP(=O)(N(C)C)N%15C[C@@H](COP(=O)(N(C)C)N%16C[C@@H](COP(=O)(N(C)C)N%17C[C@@H](COP(=O)(N(C)C)N%18C[C@@H](COP(=O)(N(C)C)N%19C[C@@H](COP(=O)(N(C)C)N%20C[C@@H](COP(=O)(N(C)C)N%21CCN(C(=O)CCCN%22C(=O)CC(SC[C@H](NC(=O)[C@H](CCCNC(=N)N)NC(=O)[C@H](CCCNC(=N)N)NC(=O)[C@H](CCCNC(=N)N)NC(=O)[C@H](CCCNC(=N)N)NC(=O)[C@H](Cc%23ccccc%23)NC(=O)[C@H](Cc%23ccccc%23)NC(=O)[C@H](CCCNC(=N)N)NC(=O)[C@H](CCCNC(=N)N)NC(=O)[C@H](CCCNC(=N)N)NC(=O)[C@H](CCCNC(=N)N)NC(=O)[C@@H](N)CCCNC(=N)N)C(N)=O)C%22=O)CC%21)O[C@@H](n%21cnc%22c(=O)[nH]c(N)nc%22%21)C%20)O[C@@H](n%20cnc%21c(N)ncnc%21%20)C%19)O[C@@H](n%19cc(C)c(=O)[nH]c%19=O)C%18)O[C@@H](n%18cnc%19c(N)ncnc%19%18)C%17)O[C@@H](n%17cc(C)c(=O)[nH]c%17=O)C%16)O[C@@H](n%16cnc%17c(N)ncnc%17%16)C%15)O[C@@H](n%15ccc(N)nc%15=O)C%14)O[C@@H](n%14cnc%15c(N)ncnc%15%14)C%13)O[C@@H](n%13ccc(N)nc%13=O)C%12)O[C@@H](n%12cnc%13c(N)ncnc%13%12)C%11)O[C@@H](n%11cnc%12c(N)ncnc%12%11)C%10)O[C@@H](n%10ccc(N)nc%10=O)C9)O[C@@H](n9cnc%10c(N)ncnc%109)C8)O[C@@H](n8ccc(N)nc8=O)C7)O[C@@H](n7ccc(N)nc7=O)C6)O[C@@H](n6ccc(N)nc6=O)C5)O[C@@H](n5cnc6c(N)ncnc65)C4)O[C@@H](n4cnc5c(N)ncnc54)C3)O[C@@H](n3cc(C)c(=O)[nH]c3=O)C2)O[C@@H](n2cc(C)c(=O)[nH]c2=O)C1` (stereo partly drawn) [CP1], the “LANA staining by IFA after three treatments” value with LANA is “no detectable effect”. Besides, in the data set on RTA [1], the “RTA-positive cells by IFA” value is “approximately 20%”. Also, the “RTA flow cytometry profile” value in the data set with RTA [2] was “same profile as the mock treatment control”. In addition, the cytotoxicity entry with BCBL-1 cells [3] is on record as “no detectable cytotoxicity”. In addition, the “relative percentage of fluorescence intensity (cell viability)” value is 106% in the data set on BCBL-1 cells [3] (8 μM) and 107% with BCBL-1 cells [3] (16 μM). Also, in the data set with RTA [4], the “number of RTA-positive cells by IFA in BC-1 cells” value is reported as “no effect”. Moreover, in the data set on RTA [5], the “change in RTA expression by Western blot” value was “no detectable change”.

For H-RRRRRFFRRRRC-NH2 [LP1], in the data set on LANA, the “change in LANA level, recurrent application” value is given as “no change”; the “effect on LANA expression, single application (IFA and Western blot)” value is “no effect”. In addition, the “effect on luciferase translation (negative control P-PMO)” value in data set [6] is “did not have any effect”. Further, in the data set with LP1/luciferase RNA, the “inhibition of translation in LP1/luciferase reporter system” value is recorded as “effective at inhibiting translation”.

As to H-RRRRRFFRRRRC-NH2 [LP2], in the data set on LANA, the “LANA protein level (IFA and Western blot)” value is “caused reduction”; the “LANA staining by IFA after three treatments” value is recorded as “much weaker”; the “reduction in LANA protein level after the second application” value is listed as “over 60%”.

Regarding H-RRRRRFFRRRRC-NH2 [P-PMO-F1], the “cells with green fluorescence at 24, 48 and 72 h (fluorescence microscopy)” value in the data set with BCBL-1 cells [7] (BCBL-1 cells treated 4 h with 8 μM, rinsed, harvested 24, 48 and 72 h later) is on record as “almost all cells”. For the same compound, the “cells with green fluorescence at 24, 48 and 72 h (flow cytometry)” value in the data set on BCBL-1 cells [7] (BCBL-1 cells treated 4 h with 8 μM, rinsed, harvested 24, 48 and 72 h later, all three time points) is “over 95%”. Besides, the “fluorescence of cells by flow cytometry” value in the data set on BCBL-1 cells [7] (BCBL-1 cells, 8 μM, treated for 4 h, flow cytometry, 525 nm band pass filter) is reported as “high percentage”. Besides, the “green fluorescence in treated cells at day 7” value in the data set with BCBL-1 cells [7] (BCBL-1 cells, day 7 after treatment, reduced intensity, data not shown) is given as “still observed”.

For the compound H-RRRRRFFRRRRC-NH2 [mRP1], the “change in RTA expression by Western blot” value in the data set with RTA [5] is on record as “no effect”.

“tetradecanoyl phorbol acetate [TPA, reference compound]”: in the data set with KSHV, the “increase of KSHV viral DNA level by TPA induction, in cells” value is reported as 1.84 fold and the “increase of KSHV viral DNA level by TPA induction, in culture supernatant” value is 2.75 fold. Further, in the data set on RTA [1], the “RTA-positive cells by IFA after TPA induction, no P-PMO” value is reported as “approximately 20%”. Further, the “RTA-positive cells by flow cytometry after TPA induction, no P-PMO” value in the data set with RTA [2] was “approximately 25%”.
